# Values of other authors as cited in patent US20110305654A1, “ANHYDROUS PETROLEUM JELLY/ELASTOMER-FREE DEPIGMENTING COMPOSITIONS COMPRISING A SOLUBILIZED PHENOLIC COMPOUND” (Galderma Research & Development, priority 2008, published 2011).
# Where two headings read alike, the source gives them in different places.
smiles,measurement,setting,value
Oc1ccc(O)cc1 [hydroquinone],Irritation,10% concentrations,relatively high
same,Irritation,concentration of 2%,virtually nonexistent
same,Irritation,preparations with a 5% dose,reduces greatly
